# Values quoted from earlier work in US20110060040A1, “USES OF ACYLOXYALKYL CARBAMATE PRODRUGS OF TRANEXAMIC ACID” (XenoPort, Inc., priority 2009, published 2011).
# Legend:
# [1] = human patients, prodrug given orally
# [2] = cardiopulmonary bypass surgery, prophylactic administration
# [3] = patients undergoing total knee arthroplasty
oral bioavailability of tranexamic acid [1],excretion (in vivo),fraction of administered tranexamic acid metabolized (in vivo),volume of distribution (in vivo) [L],oral bioavailability (oral),Structure (SMILES),reduction of post-operative bleeding [2],reduction of total blood loss [3]
markedly improved,,,,,"CCOC(=O)OC(C)OC(=O)[C@H]1CC[C@H](CN)CC1 (relative stereo) [Kabi 2161, 1-(ethoxycarbonyl)oxyethyl trans-4-(aminomethyl)-cyclohexanecarboxylate]",,
,most is excreted unchanged by the kidney,Only a small fraction,9 to 12,ca. 30%,"NC[C@H]1CC[C@H](C(=O)O)CC1 [tranexamic acid, trans-4-(aminomethyl)-cyclohexanecarboxylic acid]",30-40%,up to 50%
